Assays:
Experiment in all cases: relative viability (nuclei count vs DMSO), 5 days (fraction); higher = more cells survive
Halofuginone + OSI-027 = compound: O=C(C[C@H]1NCCC[C@@H]1O)Cn1cnc2cc(Br)c(Cl)cc2c1=O (racemic) [Halofuginone] + COc1cccc2cc(-c3nc([C@H]4CC[C@H](C(=O)O)CC4)n4ncnc(N)c34)[nH]c12 [OSI-027] (partner 0.5 µM)
Outline: (§1)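 Lung cancer cell lines were seeded in 1536-well plates and dosed by pin tool the next day, with either a single drug or a fixed anchor-drug dose combined with five library-drug doses (not always all listed) spaced in √10 steps. Five days later, one step fixed the cells and stained their nuclei (final 0.05% Triton X-100, 1% formaldehyde, 1 ug/ml Hoechst), and nuclei were counted on 4× images. Relative viability is the nuclei count in treated wells divided by the count in vehicle wells, and each value is the median of duplicate plates.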

Cediranib + Phenformin = compound: COc1cc2c(Oc3ccc4[nH]c(C)cc4c3F)ncnc2cc1OCCCN1CCCC1 [Cediranib] + N=C(N)NC(=N)NCCc1ccccc1 [Phenformin] (partner 250 µM)
Outline: as §1

Decitabine + Crizotinib = compound: Nc1ncn([C@H]2C[C@H](O)[C@@H](CO)O2)c(=O)n1 [Decitabine] + C[C@@H](Oc1cc(-c2cnn(C3CCNCC3)c2)cnc1N)c1c(Cl)ccc(F)c1Cl [Crizotinib] (partner 1 µM)
Outline: as §1

Decitabine + Palbociclib = compound: Nc1ncn([C@H]2C[C@H](O)[C@@H](CO)O2)c(=O)n1 [Decitabine] + CC(=O)c1c(C)c2cnc(Nc3ccc(N4CCNCC4)cn3)nc2n(C2CCCC2)c1=O [Palbociclib] (partner 0.5 µM)
Outline: as §1

Cell Line | relative viability (Halofuginone + OSI-027; first compound 0.001 µM) | relative viability (Halofuginone + OSI-027; first compound 0.003162 µM) | relative viability (Halofuginone + OSI-027; first compound 0.01 µM) | relative viability (Halofuginone + OSI-027; first compound 0.03162 µM) | relative viability (Halofuginone + OSI-027; first compound 0.1 µM) | relative viability (Cediranib + Phenformin; first compound 0.04 µM) | relative viability (Cediranib + Phenformin; first compound 0.1265 µM) | relative viability (Cediranib + Phenformin; first compound 0.4 µM) | relative viability (Cediranib + Phenformin; first compound 1.265 µM) | relative viability (Cediranib + Phenformin; first compound 4 µM) | relative viability (Decitabine + Crizotinib; first compound 0.04 µM) | relative viability (Decitabine + Crizotinib; first compound 0.1265 µM) | relative viability (Decitabine + Crizotinib; first compound 0.4 µM) | relative viability (Decitabine + Crizotinib; first compound 1.265 µM) | relative viability (Decitabine + Crizotinib; first compound 4 µM) | relative viability (Decitabine + Palbociclib; first compound 0.04 µM) | relative viability (Decitabine + Palbociclib; first compound 0.1265 µM) | relative viability (Decitabine + Palbociclib; first compound 0.4 µM) | relative viability (Decitabine + Palbociclib; first compound 4 µM) | relative viability (Decitabine + Palbociclib; first compound 1.265 µM)
201T | 0.755 | 0.775 | 0.713 | 0.474 | 0.256 | 0.454 | 0.587 | 0.422 | 0.483 | 0.41 | 1.02 | 1 | 1.15 | 0.965 | 0.914 | 0.373 | 0.383 | 0.439 | 0.379 | –
A549 | – | – | – | – | – | 0.135 | 0.121 | 0.211 | 0.153 | 0.212 | 0.498 | 0.658 | 0.348 | 0.13 | 0.102 | – | – | – | – | –
A-427 | 0.472 | 0.483 | 0.385 | 0.445 | 0.419 | 0.346 | – | 0.228 | 0.308 | 0.253 | 0.489 | 0.403 | 0.316 | 0.205 | 0.165 | 0.451 | 0.466 | 0.378 | 0.381 | 0.431
ABC-1 | 0.413 | 0.454 | 0.504 | 0.601 | 0.417 | 0.226 | 0.294 | 0.243 | – | 0.241 | 0.771 | 0.907 | 0.627 | 0.728 | 0.542 | – | 0.805 | 0.794 | 0.551 | 0.57
BEN | 0.341 | 0.287 | 0.299 | 0.288 | 0.247 | 0.266 | – | 0.258 | 0.236 | 0.253 | 0.914 | 0.786 | 0.623 | 0.469 | 0.453 | 0.497 | 0.443 | 0.455 | 0.42 | 0.435
CAL-12T | 0.872 | 0.771 | 0.707 | 0.807 | 0.414 | 0.618 | 0.641 | 0.597 | 0.627 | 0.648 | 0.612 | 0.664 | 0.174 | 0.416 | 0.222 | 0.279 | 0.431 | 0.25 | 0.288 | 0.28
COR-L23 | 0.769 | 0.86 | 0.72 | 0.677 | 0.302 | 0.452 | 0.39 | 0.406 | 0.405 | 0.482 | 0.332 | 0.33 | 0.332 | 0.22 | 0.184 | 0.212 | 0.237 | 0.196 | 0.153 | 0.145
COR-L 105 | 0.667 | 0.637 | 0.603 | 0.656 | 0.466 | 0.4 | 0.58 | 0.497 | 0.519 | 0.523 | 0.596 | 0.633 | 0.573 | 0.356 | 0.319 | 0.45 | 0.474 | 0.397 | 0.387 | 0.408
Calu-6 | – | – | – | – | – | – | – | – | – | – | 0.495 | 0.478 | 0.283 | 0.227 | 0.224 | – | – | – | – | –
ChaGo-K-1 | 0.537 | 0.605 | 0.528 | 0.537 | 0.501 | 0.486 | 0.361 | 0.452 | 0.564 | 0.576 | 0.962 | 0.857 | 0.631 | 0.6 | 0.605 | 0.764 | 0.545 | 0.442 | 0.637 | 0.362
EBC-1 | – | – | – | – | – | – | – | – | – | – | 0.146 | 0.176 | 0.193 | 0.144 | 0.148 | – | – | – | – | –
EKVX | 0.656 | 0.789 | 0.773 | 0.499 | 0.539 | 0.212 | 0.177 | 0.221 | 0.259 | 0.233 | 0.828 | 0.73 | 0.503 | 0.396 | 0.364 | 0.3 | 0.372 | 0.405 | 0.235 | 0.259
EMC-BAC-2 | 0.4 | 0.397 | 0.38 | 0.4 | 0.315 | 0.507 | 0.583 | 0.535 | 0.484 | 0.436 | 0.64 | 0.656 | 0.454 | 0.483 | 0.402 | – | 0.519 | 0.523 | 0.457 | 0.467
EPLC-272H | 0.342 | 0.278 | 0.262 | 0.29 | 0.257 | 0.307 | – | 0.334 | – | 0.253 | 0.587 | 0.587 | – | 0.414 | 0.402 | 0.353 | 0.316 | – | 0.272 | 0.326
H3255 | 0.598 | 0.55 | 0.602 | 0.601 | 0.553 | 0.404 | – | 0.337 | 0.373 | 0.312 | 0.417 | 0.82 | 0.419 | 0.537 | 0.484 | 0.333 | 0.343 | 0.3 | 0.307 | 0.302
HARA | 0.68 | 0.631 | 0.536 | 0.566 | 0.399 | 0.331 | – | 0.391 | 0.429 | 0.454 | 0.774 | 0.745 | 0.63 | 0.379 | 0.352 | 0.238 | 0.244 | 0.253 | 0.207 | 0.223
HCC-15 | 0.709 | 0.667 | 0.644 | 0.709 | 0.509 | 0.491 | – | 0.474 | 0.512 | 0.509 | 0.705 | 0.643 | 0.333 | 0.412 | 0.355 | 0.776 | 0.591 | 0.412 | 0.441 | 0.38
HCC-44 | 0.505 | 0.613 | 0.444 | 0.379 | 0.202 | 0.195 | – | 0.241 | 0.224 | 0.201 | 0.641 | 0.72 | 0.28 | 0.449 | 0.374 | 1.01 | 0.935 | 0.808 | 0.873 | 0.761
HCC-78 | 0.347 | 0.334 | 0.363 | 0.396 | 0.407 | 0.712 | 0.709 | 0.649 | 0.607 | 0.718 | 0.354 | 0.382 | 0.395 | 0.272 | 0.255 | 0.483 | 0.554 | 0.487 | 0.423 | 0.436
